Data published in patent US20240239761A1, “BICYCLIC PHENOL COMPOUNDS AND USE THEREOF” (MEDSHINE DISCOVERY INC., priority 2021, published 2024).
Where two headings read alike, the source gives them in different places.

How the values were obtained:
THRα = THRα (Homo sapiens (Human), UniProt P10827); test: GeneBLAzer TR alpha-UAS-bla HEK 293T cell-based agonist assay; settings: TR alpha-UAS-bla HEK 293T cells; for EC50: 22 hours incubation; for THRα maximum agnostic capability: T3 as positive control
Experimental: When a compound enters the cell and binds to THR, the receptor binds to the DNA binding region to form a complete GAL4 dimer that utilizes the GAL4-UAS system to activate β-lactamase expression, which then decomposes the substrate CCF4-AM (coumarin).
The LiveBLAzer™M-FRET B/G (CCF4-AM) substrate was added to the cell plate and incubated for 2 hours at room temperature, shielded from light. […] By detecting the ratio of the two fluorescences (460 nm/530 nm), the EC50 of the compound was calculated using Graphpad Prism software. […] The Z-factor (greater than 0.5) is calculated to monitor the stability of each experiment.

THRβ = THRβ (Homo sapiens, UniProt P10828); test: GeneBLAzer TR beta-UAS-bla HEK 293T cell-based agonist assay; settings: for THRß maximum agnostic capability: TR beta-UAS-bla HEK 293T cells, T3 as positive control
Source text: The present experiment employs the GeneBLAzer® TR alpha/beta-UAS-bla HEK 293T Cell-based Assay developed by ThermoFisher. The underlying principle is that TR alpha-UAS-bla HEK 293T Cell and TR beta-UAS-bla HEK 293T Cell express B-lactamase, a reporter gene controlled by the upstream UAS sequence. When a compound enters the cell and binds to THR, the receptor binds to the DNA binding region to form a complete GAL4 dimer that utilizes the GAL4-UAS system to activate β-lactamase expression, which then decomposes the substrate CCF4-AM (coumarin). The resulting product, when excited at 409 nm, emits fluorescence at a wavelength of 447 nm. If β-lactamase is not expressed, the product generates fluorescence at a wavelength of 520 nm through FRET under excitation at 409 nm. By detecting the ratio of the two fluorescences (447 nm/520 nm), the binding status of the compound to the protein can be determined, thus allowing the calculation of the EC50 of the compound.
The ECHO liquid handling workstation was used to transfer the compound to a 384-well plate, with 10 gradient concentrations for each compound, 3-fold dilution, and duplicate wells. 1.5×10^4 cells (TR beta-UAS-bla HEK 293T Cell) or 1.0×10^4 cells (TR alpha-UAS-bla HEK 293T Cell) were seeded onto the 384-well plate. HEK 293T-TR beta cells were incubated for 16 hours in a 37° C. incubator, and HEK 293T-TR alpha cells were incubated for 22 hours. The LiveBLAzer™M-FRET B/G (CCF4-AM) substrate was added to the cell plate and incubated for 2 hours at room temperature, shielded from light. The Flexstation 3 instrument was utilized to detect the fluorescence values with the wavelength of 460 nm/530 nm emitted by the product under the excitation at 409 nm. By detecting the ratio of the two fluorescences (460 nm/530 nm), the EC50 of the compound was calculated using Graphpad Prism software. […] The Z-factor (greater than 0.5) is calculated to monitor the stability of each experiment.

CYP1A2 = CYP1A2 (Homo sapiens (Human), UniProt P05177); type: in vitro ADME; settings: microsomes
Experimental: (§1) To determine the inhibitory effect of the test compound WX001 on the activity of human liver microsomal cytochrome P450 isoenzymes (CYP1A2, CYP2C9, CYP2C19, CYP2D6, and CYP3A4). First, the test compound (10.0 mM) was diluted to prepare a working solution (100×the final concentration) with a concentration of 1.00 mM. Simultaneously, working solutions were respectively prepared for positive inhibitors of the P450 isoenzymes (CYP1A2, CYP2C9, CYP2C19, CYP2D6, CYP3A4 (with midazolam as a probe substrate), and CYP3A4 (with testosterone as a probe substrate)) and specific probe substrates thereof. Human liver microsomes, stored in a refrigerator at a temperature lower than −60° C., were thawed on ice, and once fully dissolved, were diluted with PB to prepare a working solution of a specific concentration (0.127 mg/mL). 20.0 μL of probe substrate was added to the reaction plate (20.0 μL of PB was added to the Blank wells), followed by the addition of 158 μL of human liver microsomal working solution to the reaction plate. The reaction plate was then placed on ice for later use. Then, 2.00 μL of the test compound (N=1) and specific inhibitors (N=2) were added to the corresponding wells. […] Lastly, the plate was sealed, shaken to ensure the content was thoroughly mixed, and analyzed by LC/MS/MS.

CYP2C9 = CYP2C9 (Homo sapiens (Human), UniProt P11712); test: Inhibition of human liver microsomal cytochrome P450 isoenzyme CYP2C9; type: in vitro ADME; settings: human liver microsomes
Experimental: as §1

CYP2C19 = CYP2C19 (Homo sapiens (Human), UniProt P33261); test: Inhibition of human liver microsomal cytochrome P450 isoenzyme CYP2C19; type: in vitro ADME; settings: human liver microsomes
Experimental: as §1

CYP2D6 = CYP2D6 (Homo sapiens (Human), UniProt P10635); test: Inhibition of human liver microsomal cytochrome P450 isoenzyme CYP2D6; type: in vitro ADME; settings: human liver microsomes
Experimental: as §1

CYP3A4 = CYP3A4 (Homo sapiens (Human), UniProt P08684); test: Inhibition of human liver microsomal cytochrome P450 isoenzyme CYP3A4; type: in vitro ADME; settings: human liver microsomes
Experimental: as §1

[1] = Pharmacokinetic study of oral and intravenous administration in rats; type: in vivo, rat; settings: male SD rats; for half-life: read-out: Half-life T1/2 (converted)
Experimental: Pharmacokinetic study of oral and intravenous administration of WX001 in rats
Male SD rats were selected, and given the test compound as detailed in Table 3.
Whole blood was collected for a certain period of time and prepared into plasma. The drug concentration was analyzed by the LC-MS/MS method, and the pharmacokinetic parameters were calculated using Phoenix WinNonlin software (Pharsight, USA).

[2] = rat, plasma, 30 mg/kg, oral, 30 mpk

THRα, sequence (P10827 other isoform, or with tags, fused parts or gaps isoform P10827-2): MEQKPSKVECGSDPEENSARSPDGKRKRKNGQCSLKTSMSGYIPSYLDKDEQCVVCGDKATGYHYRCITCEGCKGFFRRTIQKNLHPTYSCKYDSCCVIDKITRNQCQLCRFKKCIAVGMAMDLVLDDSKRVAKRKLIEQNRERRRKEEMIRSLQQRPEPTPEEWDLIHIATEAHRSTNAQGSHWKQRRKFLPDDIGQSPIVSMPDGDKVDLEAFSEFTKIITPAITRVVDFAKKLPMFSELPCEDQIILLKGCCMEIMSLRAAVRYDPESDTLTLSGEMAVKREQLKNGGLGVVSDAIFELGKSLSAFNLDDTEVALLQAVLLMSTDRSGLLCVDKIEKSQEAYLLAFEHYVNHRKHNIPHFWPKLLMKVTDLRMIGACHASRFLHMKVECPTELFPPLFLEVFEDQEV
THRβ, sequence (P10828 whole entry, looked up, the tested form may be a part): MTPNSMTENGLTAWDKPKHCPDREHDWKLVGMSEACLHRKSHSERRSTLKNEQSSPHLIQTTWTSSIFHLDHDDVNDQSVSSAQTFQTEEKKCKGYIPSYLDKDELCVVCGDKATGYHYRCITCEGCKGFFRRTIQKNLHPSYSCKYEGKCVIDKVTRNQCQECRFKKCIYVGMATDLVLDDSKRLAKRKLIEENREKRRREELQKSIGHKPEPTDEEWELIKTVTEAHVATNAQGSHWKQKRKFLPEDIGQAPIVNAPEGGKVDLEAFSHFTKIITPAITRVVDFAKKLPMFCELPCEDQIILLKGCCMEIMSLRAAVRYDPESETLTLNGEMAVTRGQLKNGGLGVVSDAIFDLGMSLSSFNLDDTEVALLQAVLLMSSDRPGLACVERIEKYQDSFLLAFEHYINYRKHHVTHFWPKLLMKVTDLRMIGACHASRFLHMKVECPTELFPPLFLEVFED
CYP3A4, sequence (P08684 whole entry): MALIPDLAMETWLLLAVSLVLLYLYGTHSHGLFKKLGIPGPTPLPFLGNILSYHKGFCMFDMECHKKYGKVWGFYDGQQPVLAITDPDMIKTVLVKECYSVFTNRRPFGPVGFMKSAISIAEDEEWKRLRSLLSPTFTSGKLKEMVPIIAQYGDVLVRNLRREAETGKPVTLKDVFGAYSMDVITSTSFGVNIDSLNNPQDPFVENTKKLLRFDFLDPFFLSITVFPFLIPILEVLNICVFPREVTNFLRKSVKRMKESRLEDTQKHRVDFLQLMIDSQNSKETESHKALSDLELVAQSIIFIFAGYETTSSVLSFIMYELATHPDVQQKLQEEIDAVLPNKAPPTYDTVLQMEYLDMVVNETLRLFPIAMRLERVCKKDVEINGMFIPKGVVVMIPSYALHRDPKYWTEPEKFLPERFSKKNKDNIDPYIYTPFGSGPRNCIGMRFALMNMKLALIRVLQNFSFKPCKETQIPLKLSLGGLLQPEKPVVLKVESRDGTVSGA
CYP2C9, sequence (P11712 whole entry): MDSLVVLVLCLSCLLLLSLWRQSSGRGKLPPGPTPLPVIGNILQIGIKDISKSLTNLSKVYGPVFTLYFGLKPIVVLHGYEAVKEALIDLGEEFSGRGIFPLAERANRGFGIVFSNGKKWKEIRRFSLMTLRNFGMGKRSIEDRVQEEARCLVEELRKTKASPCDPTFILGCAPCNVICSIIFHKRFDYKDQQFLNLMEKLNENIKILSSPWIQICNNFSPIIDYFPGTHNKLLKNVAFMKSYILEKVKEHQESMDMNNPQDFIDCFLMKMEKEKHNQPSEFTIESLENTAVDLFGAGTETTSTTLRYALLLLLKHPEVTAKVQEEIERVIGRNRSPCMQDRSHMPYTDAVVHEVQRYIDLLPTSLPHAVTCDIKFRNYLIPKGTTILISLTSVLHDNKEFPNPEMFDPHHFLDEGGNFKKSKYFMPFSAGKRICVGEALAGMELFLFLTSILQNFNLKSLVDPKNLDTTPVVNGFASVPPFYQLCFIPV
CYP2D6, sequence (P10635 whole entry): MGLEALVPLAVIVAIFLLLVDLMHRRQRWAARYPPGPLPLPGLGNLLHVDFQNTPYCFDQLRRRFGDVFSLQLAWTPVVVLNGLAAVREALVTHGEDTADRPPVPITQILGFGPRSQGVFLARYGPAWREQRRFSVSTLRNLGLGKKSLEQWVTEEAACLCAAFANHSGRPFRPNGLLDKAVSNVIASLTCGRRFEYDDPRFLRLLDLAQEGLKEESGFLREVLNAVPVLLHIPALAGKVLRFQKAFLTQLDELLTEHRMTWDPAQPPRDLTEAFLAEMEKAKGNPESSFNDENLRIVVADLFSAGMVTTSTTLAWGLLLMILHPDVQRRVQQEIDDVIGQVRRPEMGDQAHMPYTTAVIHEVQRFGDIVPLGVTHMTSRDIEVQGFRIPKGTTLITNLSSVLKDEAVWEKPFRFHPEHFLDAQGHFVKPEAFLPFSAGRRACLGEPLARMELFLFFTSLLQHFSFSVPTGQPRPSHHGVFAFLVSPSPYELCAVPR
CYP2C19, sequence (P33261 whole entry): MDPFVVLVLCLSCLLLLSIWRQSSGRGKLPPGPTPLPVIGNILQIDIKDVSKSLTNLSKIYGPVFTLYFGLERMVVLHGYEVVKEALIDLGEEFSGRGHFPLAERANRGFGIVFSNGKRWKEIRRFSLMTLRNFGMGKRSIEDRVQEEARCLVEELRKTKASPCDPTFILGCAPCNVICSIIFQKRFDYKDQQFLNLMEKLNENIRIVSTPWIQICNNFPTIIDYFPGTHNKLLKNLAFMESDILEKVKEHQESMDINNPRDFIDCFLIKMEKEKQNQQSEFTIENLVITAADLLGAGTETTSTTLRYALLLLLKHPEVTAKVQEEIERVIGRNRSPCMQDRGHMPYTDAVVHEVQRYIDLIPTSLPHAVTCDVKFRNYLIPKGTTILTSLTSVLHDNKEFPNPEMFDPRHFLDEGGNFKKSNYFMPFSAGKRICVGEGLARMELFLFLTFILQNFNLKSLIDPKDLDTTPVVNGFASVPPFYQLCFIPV
CYP1A2, sequence (P05177 whole entry): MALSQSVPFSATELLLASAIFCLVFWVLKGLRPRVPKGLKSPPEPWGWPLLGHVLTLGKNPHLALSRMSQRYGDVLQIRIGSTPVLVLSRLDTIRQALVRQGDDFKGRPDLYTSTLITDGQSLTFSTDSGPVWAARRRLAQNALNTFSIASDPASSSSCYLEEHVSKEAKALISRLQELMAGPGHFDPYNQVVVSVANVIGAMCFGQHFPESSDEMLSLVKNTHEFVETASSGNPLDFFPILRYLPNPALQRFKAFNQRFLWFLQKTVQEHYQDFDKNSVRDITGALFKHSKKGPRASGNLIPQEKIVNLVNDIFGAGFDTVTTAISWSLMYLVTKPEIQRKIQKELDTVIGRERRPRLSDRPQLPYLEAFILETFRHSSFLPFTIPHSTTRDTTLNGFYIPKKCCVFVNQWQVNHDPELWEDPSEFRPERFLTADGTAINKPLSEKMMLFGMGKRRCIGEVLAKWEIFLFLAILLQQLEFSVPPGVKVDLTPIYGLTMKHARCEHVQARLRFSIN

| Compound | EC50 (THRα) | THRα maximum agnostic capability (THRα) | EC50 (THRβ) | THRß maximum agnostic capability (THRβ) | inhibitory effect on CYP1A2 (in words) (CYP1A2) | IC50 (CYP2C9) | inhibition against CYP2C9 (in words) (CYP2C9) | IC50 (CYP2C19) | inhibitory effect on CYP2C19 (in words) (CYP2C19) | IC50 (CYP2D6) | inhibitory effect on CYP2D6 (in words) (CYP2D6) | inhibitory effect on CYP3A4 (in words) (CYP3A4) | IC50 (CYP3A4; midazolam as probe substrate) | Area under the plasma concentration-time curve/Dosage DNAUC0-last ([1]; intravenous, 3 mpk) | Area under the plasma concentration-time curve/Dosage DNAUC0-last ([1]; oral, 30 mpk) | Vd ([1]; rat, plasma, 3 mg/kg, intravenous, 3 mpk, read-out: Apparent volume of distribution Vdss) | clearance ([1]; rat, plasma, 3 mg/kg, intravenous, 3 mpk, read-out: Clearance CL) | half-life ([1]; rat, plasma, 3 mg/kg, intravenous, 3 mpk) | bioavailability [1, 2] | half-life [1, 2] |
| --- | --- | --- | --- | --- | --- | --- | --- | --- | --- | --- | --- | --- | --- | --- | --- | --- | --- | --- | --- | --- |
| Cc1cc(NC(=O)c2noc(=O)[nH]2)cc(C)c1Cc1ccc(O)c2c1CCCC2 [WX001] | 122 nM | 24% | 39.4 nM | 103% | no inhibitory effects | 3270 nM | moderate inhibition | 5090 nM | no inhibitory effects | 41600 nM | no inhibitory effects | no inhibitory effects | 25400 nM | 5343 nM. h/mpk | 1939 nM. h/mpk | 0.411 L/kg | 7.93 mL/min/kg | 1.66 h | 36% | 1.6 h |
| Cc1cc(NC(=O)c2noc(=O)[nH]2)cc(C)c1Cc1ccc(O)c(Cc2ccccc2)c1 [WX002] | 1000 nM | 101% | 85.5 nM | 99% |  |  |  |  |  |  |  |  |  |  |  |  |  |  |  |  |
| Cc1cc(NC(=O)c2noc(=O)[nH]2)cc(C)c1Cc1cc(I)c(O)c2c1CCCC2 [WX005] | 155 nM | 85% | 57.8 nM | 96% |  |  |  |  |  |  |  |  |  |  |  |  |  |  |  |  |
| Cc1cc(NC(=O)c2noc(=O)[nH]2)cc(C)c1Cc1cc(F)c(O)c2c1CCCC2 [WX006] | 435 nM | 86% | 105 nM | 90% |  |  |  |  |  |  |  |  |  |  |  |  |  |  |  |  |
